Assay results from publication PMC12314051, “Design, antiproliferative potency, and in silico studies of novel 5-methylfuran-3-yl)thio)-3-phenylquinazolin-4(3H)-one based derivatives as potential EGFR inhibitors” (Scientific Reports, 2025).
Where two headings read alike, the source gives them in different places.

How the values were obtained:
[1] = tested on: HepG-2, HCT-116 and MCF-7 cell lines; test: MTT cytotoxicity, all screened cancer cell lines together (SAR summary); type: cell-based, human
Description: […]. In addition, replacement of acetyl group in 2 with pyrazoline moiety with free N-1 in 7 or bound to thiazole in 9, yielded weak activity.
(§1) Following the published protocol[75]–[77], the cytotoxic effects of the newly synthesized quinazolinones 1–10 were assessed in vitro using the MTT test method on human liver HepG-2, breast MCF-7, colorectal HCT-116 cancer cell lines, and normal diploid cell line WI-38. There were further details in the supplemetary file.
(§2) The cell lines were obtained from Karolinska Center, Department of Oncology and Pathology, Karolinska Institute and Hospital, Stockholm, Sweden, as follows: human liver HepG-2, breast MCF-7, and colorectal HCT-116 cancer cell lines and human diploid cell line WI-38. Exponentially, cells were placed in 10^4 cells/ well for 24 h, and then fresh medium containing different concentrations of the tested sample. two-fold serial dilution of the tested sample was added using a multichannel pipette. Moreover, all cells were cultivated at 37 °C, 5% CO2 and 95% humidity. Also, incubation of control cells occurred at 37 °C. However, after incubation for 24 h different concentrations of the sample (100, 50, 25, 12.5, 6.25, 3.125, and 1.56 µM) were added, and continued the incubation for 48 h, then, add the crystal violet solution of 1% to each well for 0.5 h to examine viable cells. Rinse the wells using water until no stain. After that, add 30% glacial acetic acid to all wells with shaking plates on a Microplate reader (TECAN, Inc.) to measure the absorbance, using a test wavelength of 490 nm. Besides, compare the treated samples with the control cell. The cytotoxicity was estimated by IC50 in (μM), the concentration that inhibits 50% of growth of cancer cell.

HepG-2 cells = test: MTT cytotoxicity assay, HepG-2; type: cell-based; conditions: Homo sapiens
Description: as §1, §2

WI-38 cells = test: MTT cytotoxicity assay, normal WI-38; type: cell-based; conditions: Homo sapiens
Description: . […]. Furthermore, the MTT assay was employed to examine the safety profiles of the cytotoxic activity against the normal human diploid cell line WI-38 (Table 1). […]. They could therefore be considered safe chemotherapeutic agents.
as §1, §2

MCF-7 cells = test: MTT cytotoxicity assay, MCF-7; type: cell-based; conditions: Homo sapiens
Description: as §1, §2

HCT-116 cells = test: MTT cytotoxicity assay, HCT-116; type: cell-based; conditions: Homo sapiens
Description: as §1, §2

[2] = HepG2, HepG-2, MTT assay, read-out: IC50 (mean ± SD)
[3] = normal WI-38, MTT assay, read-out: IC50 (mean ± SD)
[4] = MCF7, MCF-7, MTT assay, read-out: IC50 (mean ± SD)
[5] = HCT-116, MTT assay, read-out: IC50 (mean ± SD)
[6] = HepG-2, HCT-116 and MCF-7 cell lines

| Compound | cytotoxic activity in words (SAR study) [1] | IC50 (HepG-2 cells; [2]) | IC50 (WI-38 cells; [3]) | IC50 (MCF-7 cells; [4]) | IC50 (HCT-116 cells; [5]) | cytotoxic activity in words (SAR study) [1, 6] | IC50 (HepG-2 cells; HepG2, read-out: IC50 (mean ± SD)) | IC50 (WI-38 cells; WI-38, read-out: IC50 (mean ± SD)) | IC50 (MCF-7 cells; MCF7, read-out: IC50 (mean ± SD)) | IC50 (HCT-116 cells; HCT-116, read-out: IC50 (mean ± SD)) |
| --- | --- | --- | --- | --- | --- | --- | --- | --- | --- | --- |
| CC(=O)c1c(Sc2nc3ccccc3c(=O)n2-c2ccccc2)coc1C [Compound 2, 2-[(4-Acetyl-5-methylfuran-3-yl)thio]-3-phenylquinazolin-4(3H)-one] | Weak activity | 47.8 ± 2.8 µM | 36.9 ± 2.4 µM | 54.9 ± 3.2 µM | 78.7 ± 3.7 µM |  |  |  |  |  |
| Cc1occ(Sc2nc3ccccc3c(=O)n2-c2ccccc2)c1C(=O)C=Cc1ccc(Cl)cc1 [Compound 3a, 2-{{{4-[3-(4-Chlorophenyl)acryloyl]-5-methylfuran-3-yl}thio}}-3-phenylquinazolin-4(3H)-one] |  | 21.8 ± 1.6 µM | 68.7 ± 3.6 µM | 37.9 ± 2.2 µM | 34.1 ± 2.1 µM |  |  |  |  |  |
| Cc1occ(Sc2nc3ccccc3c(=O)n2-c2ccccc2)c1C(=O)C=Cc1ccc(F)cc1 [Compound 3b, 2-{{{4-[3-(4-Fluorophenyl)acryloyl]-5-methylfuran-3-yl}thio}}-3-phenylquinazolin-4(3H)-one] |  | 56 ± 3.2 µM | 28.8 ± 1.9 µM | 71.1 ± 3.8 µM | 83.3 ± 4.1 µM |  |  |  |  |  |
| COc1ccc(C=CC(=O)c2c(Sc3nc4ccccc4c(=O)n3-c3ccccc3)coc2C)cc1 [Compound 3c, 2-{{{4-[3-(4-Methoxyphenyl)acryloyl]-5-methylfuran-3-yl}thio}}-3-phenylquinazolin-4(3H)-one] |  |  | 53.2 ± 2.9 µM | 23.4 ± 1.6 µM | > 100 µM |  |  |  |  |  |
| Cc1occ(Sc2nc3ccccc3c(=O)n2-c2ccccc2)c1C(=O)C=Cc1ccco1 [Compound 3d, 2-{{{4-[3-(Furan-2-yl)acryloyl]-5-methylfuran-3-yl}thio}}-3-phenylquinazolin-4(3H)-one] |  | 18.9 ± 1.4 µM | > 100 µM | 16 ± 1.3 µM | 25.9 ± 1.7 µM |  |  |  |  |  |
| CCOC(=O)C1C(=O)C=C(c2c(Sc3nc4ccccc4c(=O)n3-c3ccccc3)coc2C)CC1c1ccc(F)cc1 (stereo not shown) [Compound 4, Ethyl 4′-fluoro-5-{2-methyl-4-[(4-oxo-3-phenyl-3,4-dihydroquinazolin-2-yl)thio]furan-3-yl}-3-oxo-1,2,3,6-tetrahydro-[1,1′-biphenyl]-2-carboxylate] |  | 64.9 ± 3.5 µM | 44.9 ± 2.7 µM | 62.1 ± 3.5 µM | 87.8 ± 4.3 µM | Weak activity |  |  |  |  |
| COc1ccc(-c2cc(-c3c(Sc4nc5ccccc5c(=O)n4-c4ccccc4)coc3C)ncc2C#N)cc1 [Compound 5, 4-(4-Methoxyphenyl)-6-{2-methyl-4-[(4-oxo-3-phenyl-3,4-dihydroquinazolin-2-yl)thio]furan-3-yl}nicotinonitrile] |  | 38.5 ± 2.3 µM | 17.8 ± 1.4 µM | 50 ± 2.8 µM | 66.3 ± 3.5 µM | Weak activity |  |  |  |  |
| Cc1occ(Sc2nc3ccccc3c(=O)n2-c2ccccc2)c1C1CC(c2ccc(F)cc2)Nc2ccccc2N1 (stereo not shown) [Compound 6a, 2-{{{4-[4-(4-Fluorophenyl)-2,3,4,5-tetrahydro-1H-benzo[b][1,4]diazepin-2-yl]-5-methylfuran-3-yl}thio}}-3-phenylquinazolin-4(3H)-one] |  | 35.8 ± 2.1 µM | 85.1 ± 4.2 µM | 33.6 ± 2 µM | 52.5 ± 3.1 µM | Weak activity |  |  |  |  |
| Cc1occ(Sc2nc3ccccc3c(=O)n2-c2ccccc2)c1C1=NNC(c2ccc(Cl)cc2)C1 (stereo not shown) [Compound 7, 2-{{{4-[5-(4-Chlorophenyl)-4,5-dihydro-1H-pyrazol-3-yl]-5-methylfuran-3-yl}thio}}-3-phenylquinazolin-4(3H)-one] |  | 27.9 ± 1.9 µM | > 100 µM | 45.8 ± 2.5 µM | 48.9 ± 2.6 µM | weak activity |  |  |  |  |
| Cc1occ(Sc2nc3ccccc3c(=O)n2-c2ccccc2)c1C1=NN(C(N)=S)C(c2ccc(F)cc2)C1 (stereo not shown) [Compound 8b] |  | 81.5 ± 4.2 µM | 26.9 ± 1.8 µM | 76.1 ± 3.9 µM | 93.4 ± 4.7 µM | Weak activity |  |  |  |  |
| C#Cc1cccc(Nc2ncnc3cc(OCCOC)c(OCCOC)cc23)c1 [Erlotinib, reference compound] |  |  |  |  |  |  | 4.5 ± 0.2 µM | 6.72 ± 0.5 µM | 4.17 ± 0.2 µM | 5.23 ± 0.3 µM |
